Patent US20130344026A1, “Dimeric Smac Mimetics” (priority 2009, published 2013)
Like-named read-outs stand apart in the source and are kept apart here.

System: PANC-1 cells
Test: cell viability assay in PANC-1 cells (compound alone, + 100 ng/ml TNFa, + 300 ng/ml TRAIL)
Type: cell-based
[1] = compound alone, Tables 6-10, read-out: IC50 (μM) in cell viability assay in PANC-1 cells: Compound alone
[2] = with 100 ng/ml TNFa, Tables 6-10, read-out: IC50 (μM) in cell viability assay in PANC-1 cells: Compound + 100 ng/ml TNFa
[3] = with 300 ng/ml TRAIL, Tables 6-10, read-out: IC50 (μM) in cell viability assay in PANC-1 cells: Compound + 300 ng/ml TRAIL
[4] = Homo sapiens, PANC-1, compound alone, Tables 6-10, read-out: IC50 (μM) in cell viability assay in PANC-1 cells: Compound alone

SMILES | IC50 [2] | IC50 [3] | IC50 [4] | also measured
CN[C@@H](C)C(=O)N[C@H](C(=O)N1CCCC1C(=O)N[C@H](COCC#CC#CCOC[C@@H](NC(=O)[C@H](C)NC(=O)[C@H](NC(=O)[C@@H](C)NC)C1CCCCC1)C(C)C)C1CCCCC1)C(C)(C)C (stereo partly drawn) [Compound H-7] | – | – | – | IC50 (Homo sapiens, PANC-1, compound alone, Tables 15-18, read-out: IC50 (uM) in cell viability assay in PANC-1 cells: Cmpnd alone): > 1 µM; IC50 (with 100 ng/ml TNFa, Tables 15-18, read-out: IC50 (uM) in cell viability assay in PANC-1 cells: Cmpnd + 100 ng/ml TNFa): 0.0007 µM; IC50 (with 300 ng/ml TRAIL, Tables 15-18, read-out: IC50 (uM) in cell viability assay in PANC-1 cells: Cmpnd + 300 ng/ml TRAIL): 0.0007 µM
CN[C@@H](C)C(=O)N[C@H](C(=O)N1C[C@@H](NC(=O)c2cccc(C(=O)N[C@H]3C[C@@H](C(=O)NC4CCCc5c(OC)cccc54)N(C(=O)[C@@H](NC(=O)[C@H](C)NC)C(C)(C)C)C3)c2)C[C@H]1C(=O)NC1CCCc2c(OC)cccc21)C(C)(C)C (single isomer, unassigned) [Compound 47] | 0.012 µM | 0.011 µM | – | IC50 [1]: > 1 µM
CN[C@@H](C)C(=O)NC(C(=O)N[C@@H](CCNC(=O)CCc1cn([C@H]2C[C@@H](C(=O)N[C@@H]3CCCc4ccccc43)N(C(=O)[C@@H](NC(=O)[C@H](C)NC)C(C)(C)C)C2)nn1)C(=O)N[C@H](C)C(C)C)C(C)(C)C (stereo partly drawn) [Compound 198] | 0.109 µM | 0.069 µM | > 1 µM | –
CN[C@@H](C)C(=O)N[C@H](C(=O)N[C@@H](CCNC(=O)c1cccc(C(=O)N[C@H]2C[C@@H](C(=O)N[C@@H]3CCCc4ccccc43)N(C(=O)[C@@H](NC(=O)[C@H](C)NC)C(C)(C)C)C2)c1)C(=O)N[C@H](C)C(C)C)C(C)(C)C [Compound 176] | 0.0199 µM | 0.0388 µM | > 1 µM | –
CN[C@@H](C)C(=O)N[C@H](C(=O)N1CCC[C@H]1C(=O)N[C@H]1c2ccccc2C[C@@H]1OCCCCCCO[C@H]1Cc2ccccc2[C@@H]1NC(=O)[C@@H]1CCCN1C(=O)[C@@H](NC(=O)[C@H](C)NC)C(C)(C)C)C(C)(C)C [Compound 122] | 0.0015 µM | 0.0014 µM | > 1 µM | –
CN[C@@H](C)C(=O)N[C@@H](CC#CC#CC[C@H](NC(=O)[C@H](C)NC)C(=O)N1CCC[C@H]1CNC(=O)c1ccccn1)C(=O)N1CCC[C@H]1CNC(=O)c1ccccn1 [Compound 15] | 0.209 µM | 0.235 µM | > 1 µM | –
CN[C@@H](C)C(=O)N[C@H](C(=O)N1C[C@@H](NC(=O)c2cccc(C(=O)N[C@H]3C[C@@H](C(=O)N[C@H](C)c4ccccn4)N(C(=O)[C@@H](NC(=O)[C@H](C)NC)C(C)(C)C)C3)c2)C[C@H]1C(=O)N[C@H](C)c1ccccn1)C(C)(C)C [Compound 26] | > 1 µM | > 1 µM | – | IC50 [1]: > 1 µM
CN[C@@H](C)C(=O)N[C@H](C(=O)N1C[C@@H](NC(=O)c2cccc(C(=O)N[C@H]3C[C@@H](C(=O)NCCc4ccc(N)cc4)N(C(=O)[C@@H](NC(=O)[C@H](C)NC)C(C)(C)C)C3)c2)C[C@H]1C(=O)NCCc1ccc(N)cc1)C(C)(C)C [Compound 4] | > 1 µM | 0.739 µM | > 1 µM | –
CN[C@@H](C)C(=O)N[C@H](C(=O)N1C[C@@H](NC(=O)C23CC4CC(C2)CC(C(=O)N[C@H]2C[C@@H](C(=O)N[C@H](C)c5ccccc5)N(C(=O)[C@@H](NC(=O)[C@H](C)NC)C(C)(C)C)C2)(C4)C3)C[C@H]1C(=O)N[C@H](C)c1ccccc1)C(C)(C)C [Compound P3-101] | – | – | – | IC50 (Homo sapiens, PANC-1 cells, compound alone, read-out: IC50 (uM) in cell viability assay in PANC-1 cells, Cmpnd alone): > 1 µM; IC50 (PANC-1 cells, + 100 ng/ml TNFa, read-out: IC50 (uM) in cell viability assay in PANC-1 cells, Cmpnd + 100 ng/ml TNFa): 0.001 µM; IC50 (PANC-1 cells, + 300 ng/ml TRAIL, read-out: IC50 (uM) in cell viability assay in PANC-1 cells, Cmpnd + 300 ng/ml TRAIL): 0.001 µM
CN[C@@H](C)C(=O)N[C@H](C(=O)N1C[C@@H](NC(=O)c2cccc(C(=O)N[C@H]3C[C@@H](C(=O)N[C@H](C)c4ccccc4)N(C(=O)[C@@H](NC(=O)[C@H](CO)NC)C(C)(C)C)C3)c2)C[C@H]1C(=O)N[C@@H]1CCCc2ccccc21)C(C)(C)C [Compound 173] | 0.01 µM | 0.019 µM | > 1 µM | –
CN[C@@H](C)C(=O)NC(C(=O)N1C[C@@H](NC(=O)c2cccc(C(=O)N[C@H]3CC(C(=O)N[C@@H]4CC5CCC4(C)C5(C)C)N(C(=O)[C@@H](NC(=O)[C@H](C)NC)C(C)(C)C)C3)c2)CC1C(=O)N[C@@H]1CC2CCC1(C)C2(C)C)C(C)(C)C (stereo partly drawn) [Compound 40] | 0.555 µM | 0.517 µM | > 1 µM | –
